Assay results taken from patent EP4745135A1 (Gluetacs Therapeutics (Shanghai) Co., Ltd., priority 2023, dated 2025).

Key:
[1] = target: T1, IKZF3 (Homo sapiens, UniProt Q96SW2+Q9UKT9); experiment: Western blot, degradation of substrate protein in hPBMCs; format: cell-based
T1 construct: effects of the compounds of the present disclosure on the expression of target proteins in cells; endogenous in cells; host or cells: human PBMCs (Milecell Biotechnologies)

[2] = target: T2, WEE1 (Homo sapiens, UniProt P30291+Q96SW2); experiment: as above; format: cell-based
T2 construct: effects of the compounds of the present disclosure on the expression of target proteins in cells; endogenous in cells; host or cells: human PBMCs (Milecell Biotechnologies)

[3] = target: T3, IKZF2 (Homo sapiens, UniProt Q96SW2+Q9UKS7); experiment: as above; format: cell-based
T3 construct: effects of the compounds of the present disclosure on the expression of target proteins in cells; endogenous in cells; host or cells: human PBMCs (Milecell Biotechnologies)

[4] = target: T4, CK1α (Homo sapiens, UniProt P48729+Q96SW2); experiment: as above; format: cell-based
T4 construct: effects of the compounds of the present disclosure on the expression of target proteins in cells; endogenous in cells; host or cells: human PBMCs (Milecell Biotechnologies)

[5] = target: T5, IKZF1 (Homo sapiens, UniProt Q13422+Q96SW2); experiment: as above; format: cell-based
T5 construct: effects of the compounds of the present disclosure on the expression of target proteins in cells; endogenous in cells; host or cells: human PBMCs (Milecell Biotechnologies)

[6] = system: GSPT1; experiment: as above; format: cell-based, Human
[7] = target: T6, human Cereblon WT GST-tagged protein (Homo sapiens, UniProt Q96SW2); experiment: CRBN-binding affinity, HTRF (CEREBLON BINDING kit); conditions: for inhibition at 0.5 µM: read-out: Inhibition Rate at 0.5 µM (%); for inhibition at 2 µM: read-out: Inhibition Rate at 2 µM (%)
T6 construct: purchased CISBIO 64BDCRBNPEH

[8] = Western blot, 24 hours of compound treatment, compounds tested at 50 nM and 500 nM (concentration for the table not stated)
[9] = 24 hours treatment, compounds at 50 nM and 500 nM (concentration behind the class not stated)

T1 sequence (Q9UKT9 whole entry): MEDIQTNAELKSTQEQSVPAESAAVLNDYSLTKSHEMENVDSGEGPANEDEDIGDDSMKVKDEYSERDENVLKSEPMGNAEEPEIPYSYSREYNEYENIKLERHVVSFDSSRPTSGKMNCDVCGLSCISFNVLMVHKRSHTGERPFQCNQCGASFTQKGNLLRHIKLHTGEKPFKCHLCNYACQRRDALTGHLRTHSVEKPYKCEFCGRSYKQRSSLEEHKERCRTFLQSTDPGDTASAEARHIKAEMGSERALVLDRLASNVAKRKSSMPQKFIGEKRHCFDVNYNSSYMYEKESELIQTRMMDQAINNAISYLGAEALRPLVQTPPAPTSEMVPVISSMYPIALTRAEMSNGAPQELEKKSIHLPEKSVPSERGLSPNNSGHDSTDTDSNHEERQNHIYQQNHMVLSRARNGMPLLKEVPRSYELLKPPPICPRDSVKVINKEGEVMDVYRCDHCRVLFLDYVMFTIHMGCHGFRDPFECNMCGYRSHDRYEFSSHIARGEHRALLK
T1 sequence (Q96SW2 whole entry): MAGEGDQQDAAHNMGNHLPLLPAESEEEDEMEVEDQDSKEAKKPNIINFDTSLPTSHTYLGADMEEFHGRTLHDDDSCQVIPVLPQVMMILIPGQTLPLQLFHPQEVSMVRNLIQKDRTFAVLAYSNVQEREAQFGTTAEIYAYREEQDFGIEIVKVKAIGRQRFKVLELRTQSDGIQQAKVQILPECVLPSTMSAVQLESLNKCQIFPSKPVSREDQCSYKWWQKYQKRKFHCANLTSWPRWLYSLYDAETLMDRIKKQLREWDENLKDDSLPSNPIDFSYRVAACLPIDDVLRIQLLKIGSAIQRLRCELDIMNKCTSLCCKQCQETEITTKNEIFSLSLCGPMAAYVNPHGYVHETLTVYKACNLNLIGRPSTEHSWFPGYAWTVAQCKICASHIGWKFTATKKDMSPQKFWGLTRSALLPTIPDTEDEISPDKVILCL
T1 sequence (Q16531 whole entry partner): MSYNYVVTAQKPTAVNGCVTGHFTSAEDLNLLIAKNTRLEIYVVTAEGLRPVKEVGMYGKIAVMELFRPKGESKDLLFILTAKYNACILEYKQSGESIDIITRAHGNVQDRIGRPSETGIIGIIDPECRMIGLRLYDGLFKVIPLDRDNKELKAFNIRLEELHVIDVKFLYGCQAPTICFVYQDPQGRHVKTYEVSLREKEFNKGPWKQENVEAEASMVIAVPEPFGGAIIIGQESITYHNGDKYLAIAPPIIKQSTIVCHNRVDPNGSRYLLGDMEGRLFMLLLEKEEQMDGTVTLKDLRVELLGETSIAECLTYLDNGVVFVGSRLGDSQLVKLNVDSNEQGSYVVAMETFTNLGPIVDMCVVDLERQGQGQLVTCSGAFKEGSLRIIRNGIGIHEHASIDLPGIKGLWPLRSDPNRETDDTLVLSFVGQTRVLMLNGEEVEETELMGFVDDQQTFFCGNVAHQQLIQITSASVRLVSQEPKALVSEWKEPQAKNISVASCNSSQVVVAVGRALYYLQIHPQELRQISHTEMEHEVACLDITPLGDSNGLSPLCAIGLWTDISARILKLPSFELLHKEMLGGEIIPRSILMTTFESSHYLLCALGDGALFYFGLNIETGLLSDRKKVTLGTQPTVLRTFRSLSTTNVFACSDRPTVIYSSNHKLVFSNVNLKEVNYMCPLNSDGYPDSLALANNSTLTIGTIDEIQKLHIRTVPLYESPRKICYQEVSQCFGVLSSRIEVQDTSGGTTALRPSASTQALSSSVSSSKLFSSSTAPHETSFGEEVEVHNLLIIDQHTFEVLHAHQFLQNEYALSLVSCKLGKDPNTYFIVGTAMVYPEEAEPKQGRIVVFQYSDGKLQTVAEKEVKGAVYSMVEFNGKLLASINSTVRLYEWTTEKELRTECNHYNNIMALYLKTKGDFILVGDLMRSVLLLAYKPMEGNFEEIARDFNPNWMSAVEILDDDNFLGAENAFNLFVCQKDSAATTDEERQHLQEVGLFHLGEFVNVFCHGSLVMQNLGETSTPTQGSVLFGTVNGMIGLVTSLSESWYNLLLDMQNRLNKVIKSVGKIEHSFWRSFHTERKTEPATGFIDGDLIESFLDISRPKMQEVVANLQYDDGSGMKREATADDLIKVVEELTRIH
T4 sequence (P48729 whole entry): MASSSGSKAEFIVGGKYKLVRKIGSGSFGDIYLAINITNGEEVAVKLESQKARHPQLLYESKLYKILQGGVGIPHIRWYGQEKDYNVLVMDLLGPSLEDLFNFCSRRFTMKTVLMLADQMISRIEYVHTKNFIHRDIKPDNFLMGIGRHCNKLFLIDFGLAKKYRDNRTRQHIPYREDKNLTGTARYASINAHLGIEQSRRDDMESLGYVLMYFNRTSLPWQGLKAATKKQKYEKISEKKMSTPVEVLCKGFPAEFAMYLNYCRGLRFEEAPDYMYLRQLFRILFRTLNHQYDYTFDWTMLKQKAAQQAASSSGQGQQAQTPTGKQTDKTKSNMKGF
T4 sequence (Q96SW2 whole entry): as the sequence (Q96SW2 whole entry) above
T4 sequence (Q16531 whole entry partner): as the sequence (Q16531 whole entry partner) above
T6 sequence (Q96SW2 whole entry): as the sequence (Q96SW2 whole entry) above
T5 sequence (Q13422 whole entry): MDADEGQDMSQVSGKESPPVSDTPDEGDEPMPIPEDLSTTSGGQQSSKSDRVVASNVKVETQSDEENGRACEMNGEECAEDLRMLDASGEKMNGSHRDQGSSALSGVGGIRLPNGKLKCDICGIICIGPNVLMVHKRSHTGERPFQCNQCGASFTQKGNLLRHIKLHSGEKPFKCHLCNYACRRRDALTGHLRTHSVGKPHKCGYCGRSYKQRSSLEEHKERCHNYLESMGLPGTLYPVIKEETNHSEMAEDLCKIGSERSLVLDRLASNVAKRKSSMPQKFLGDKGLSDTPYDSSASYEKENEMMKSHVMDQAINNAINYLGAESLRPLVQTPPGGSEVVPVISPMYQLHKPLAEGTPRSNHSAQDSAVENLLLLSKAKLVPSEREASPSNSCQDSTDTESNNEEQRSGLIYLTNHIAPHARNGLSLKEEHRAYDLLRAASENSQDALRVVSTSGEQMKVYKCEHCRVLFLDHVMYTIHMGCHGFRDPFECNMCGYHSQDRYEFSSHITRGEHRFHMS
T5 sequence (Q96SW2 whole entry): as the sequence (Q96SW2 whole entry) above
T5 sequence (Q16531 whole entry partner): as the sequence (Q16531 whole entry partner) above
T2 sequence (P30291 whole entry): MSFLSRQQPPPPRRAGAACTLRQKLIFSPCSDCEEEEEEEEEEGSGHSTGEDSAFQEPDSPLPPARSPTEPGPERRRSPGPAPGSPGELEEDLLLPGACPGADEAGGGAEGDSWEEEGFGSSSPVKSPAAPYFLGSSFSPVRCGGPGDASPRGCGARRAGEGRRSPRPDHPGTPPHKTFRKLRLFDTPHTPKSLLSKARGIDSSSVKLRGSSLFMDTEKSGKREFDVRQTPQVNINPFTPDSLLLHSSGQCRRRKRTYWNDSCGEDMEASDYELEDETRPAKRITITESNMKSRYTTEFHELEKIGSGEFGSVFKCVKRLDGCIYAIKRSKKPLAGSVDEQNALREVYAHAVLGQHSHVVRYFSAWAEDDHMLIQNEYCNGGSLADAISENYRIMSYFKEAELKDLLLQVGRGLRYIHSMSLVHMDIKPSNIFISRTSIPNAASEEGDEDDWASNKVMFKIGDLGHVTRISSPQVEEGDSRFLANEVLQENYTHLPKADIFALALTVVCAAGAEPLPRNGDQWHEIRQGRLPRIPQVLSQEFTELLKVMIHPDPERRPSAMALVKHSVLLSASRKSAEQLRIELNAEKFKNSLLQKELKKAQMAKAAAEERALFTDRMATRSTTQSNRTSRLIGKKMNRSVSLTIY
T2 sequence (Q96SW2 whole entry): as the sequence (Q96SW2 whole entry) above
T2 sequence (Q16531 whole entry partner): as the sequence (Q16531 whole entry partner) above
T3 sequence (Q9UKS7 whole entry): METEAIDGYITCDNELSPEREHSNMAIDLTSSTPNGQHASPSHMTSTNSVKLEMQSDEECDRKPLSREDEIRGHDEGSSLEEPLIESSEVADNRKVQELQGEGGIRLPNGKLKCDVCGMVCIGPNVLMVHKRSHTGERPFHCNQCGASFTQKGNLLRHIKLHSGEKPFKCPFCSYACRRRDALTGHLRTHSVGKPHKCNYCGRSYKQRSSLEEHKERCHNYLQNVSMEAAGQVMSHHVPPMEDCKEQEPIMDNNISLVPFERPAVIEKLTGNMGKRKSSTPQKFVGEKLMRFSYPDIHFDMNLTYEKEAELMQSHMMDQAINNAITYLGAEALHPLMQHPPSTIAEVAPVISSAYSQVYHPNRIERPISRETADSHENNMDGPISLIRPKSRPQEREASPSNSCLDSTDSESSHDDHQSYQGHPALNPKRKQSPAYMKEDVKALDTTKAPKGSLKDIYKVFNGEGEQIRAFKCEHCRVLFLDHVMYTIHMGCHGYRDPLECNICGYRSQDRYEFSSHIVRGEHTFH
T3 sequence (Q96SW2 whole entry): as the sequence (Q96SW2 whole entry) above
T3 sequence (Q16531 whole entry partner): as the sequence (Q16531 whole entry partner) above

inhibition at 0.5 µM [7] | inhibition at 2 µM [7] | IC50 ([7]; CRBN binding, HTRF, 3 hours at room temperature, read-out: HTRF IC50) | Compound | IKZF3 substrate protein remaining % [1, 8] | Wee1 substrate protein remaining % [2, 8] | IKZF2 substrate protein remaining % [3, 8] | CK1α substrate protein remaining % [4, 8] | IKZF 1 substrate protein remaining % [5, 8] | GSPT1 substrate protein remaining % [6, 8] | IKZF3 substrate protein remaining % [1, 9] | Wee1 substrate protein remaining % [2, 9] | IKZF2 substrate protein remaining % [3, 9] | CK1α substrate protein remaining % [4, 9] | IKZF 1 substrate protein remaining % [5, 9] | GSPT1 substrate protein remaining % [6, 9]
60 to 80% | 80 to 100% |  | O=C1CCC(N2Cc3c(CN4CCN(c5ccccn5)CC4)cccc3C2=S)C(=O)N1 (centres unmarked) [GT-08691, 3-(4-((4-(pyridin-2-yl)piperazin-1-yl)methyl)-1-thioxoisoindolin-2-yl)piperidine-2,6-dione] | B (80%< substrate protein remaining %≤ 100%) | A (0% ≤ substrate protein remaining % ≤ 80%) | B (80%< substrate protein remaining %≤ 100%) | B (80%< substrate protein remaining %≤ 100%) | B (80%< substrate protein remaining %≤ 100%) | B (80%< substrate protein remaining %≤ 100%) |  |  |  |  |  | 
60 to 80% | 80 to 100% |  | O=C1CCC(N2Cc3c(CN4CCN(c5ncncn5)CC4)cccc3C2=S)C(=O)N1 (centres unmarked) [GT-08808, 3-(4-((4-(1,3,5-triazin-2-yl)piperazin-1-yl)methyl)-1-thioxoisoindolin-2-yl)piperidine-2,6-dione] | B (80%< substrate protein remaining %≤ 100%) | A (0% ≤ substrate protein remaining % ≤ 80%) | B (80%< substrate protein remaining %≤ 100%) | B (80%< substrate protein remaining %≤ 100%) | B (80%< substrate protein remaining %≤ 100%) | B (80%< substrate protein remaining %≤ 100%) |  |  |  |  |  | 
40 to 53% | 60 to 80% |  | O=C1CCC(N2Cc3c(CN4CCN(c5cc(Cl)cc(Cl)c5)CC4)cccc3C2=S)C(=O)N1 (centres unmarked) [GT-08629, 3-(4-((4-(3,5-dichlorophenyl)piperazin-1-yl)methyl)-1-thioxoisoindolin-2-yl)piperidine-2,6-dione] | B (80%< substrate protein remaining %≤ 100%) | A (0% ≤ substrate protein remaining % ≤ 80%) | B (80%< substrate protein remaining %≤ 100%) | A (0% ≤ substrate protein remaining % ≤ 80%) | B (80%< substrate protein remaining %≤ 100%) | B (80%< substrate protein remaining %≤ 100%) |  |  |  |  |  | 
40 to 53% | 80 to 100% |  | O=C1CCC(N2Cc3cc(CN4CCN(c5ncc(C(F)(F)F)cc5Cl)CC4)ccc3C2=S)C(=O)N1 (centres unmarked) [GT-09228, 3-(5-((4-(3-chloro-5-(trifluoromethyl)pyridin-2-yl)piperazin-1-yl)methyl)-1-thioxoisoindolin-2-yl)piperidine-2,6-dione] | B (80%< substrate protein remaining %≤ 100%) | B (80%< substrate protein remaining %≤ 100%) | B (80%< substrate protein remaining %≤ 100%) | A (0% ≤ substrate protein remaining % ≤ 80%) | B (80%< substrate protein remaining %≤ 100%) | B (80%< substrate protein remaining %≤ 100%) |  |  |  |  |  | 
53 to 60% | 80 to 100% |  | Cc1ccc(C2CCN(Cc3cccc4c3CN(C3CCC(=O)NC3=O)C4=S)CC2)s1 (centres unmarked) [GT-08312, 3-(4-((4-(5-methylthiophen-2-yl)piperidin-1-yl)methyl)-1-thioxoisoindolin-2-yl)piperidine-2,6-dione] |  |  |  |  |  |  | B (80%< substrate protein remaining %≤ 100%) | A (0% ≤ substrate protein remaining % ≤ 80%) | B (80%< substrate protein remaining %≤ 100%) | B (80%< substrate protein remaining %≤ 100%) | B (80%< substrate protein remaining %≤ 100%) | B (80%< substrate protein remaining %≤ 100%)
30 to 40% | 80 to 100% |  | CC1(C)CCC(CN2CC3CCC2CN3Cc2cccc3c2CN(C2CCC(=O)NC2=O)C3=S)=C(c2ccc(Cl)cc2)C1 (centres unmarked) [GT-08302, 3-(4-((5-((4'-chloro-5,5-dimethyl-3,4,5,6-tetrahydro-[1,1'-biphenyl]-2-yl)methyl)-2,5-diazabicyclo[2.2.2]octan-2-yl)methyl)-1-thioxoisoindolin-2-yl)piperidine-2,6-dione] | B (80%< substrate protein remaining %≤ 100%) | A (0% ≤ substrate protein remaining % ≤ 80%) | B (80%< substrate protein remaining %≤ 100%) | B (80%< substrate protein remaining %≤ 100%) | B (80%< substrate protein remaining %≤ 100%) | B (80%< substrate protein remaining %≤ 100%) |  |  |  |  |  | 
60 to 80% | 80 to 100% |  | O=C1CCC(N2Cc3c(CN4CCN(c5ccncc5Br)CC4)cccc3C2=S)C(=O)N1 (centres unmarked) [GT-08729, 3-(4-((4-(3-bromopyridin-4-yl)piperazin-1-yl)methyl)-1-thioxoisoindolin-2-yl)piperidine-2,6-dione] | B (80%< substrate protein remaining %≤ 100%) | A (0% ≤ substrate protein remaining % ≤ 80%) | B (80%< substrate protein remaining %≤ 100%) | B (80%< substrate protein remaining %≤ 100%) | B (80%< substrate protein remaining %≤ 100%) | B (80%< substrate protein remaining %≤ 100%) |  |  |  |  |  | 
60 to 80% | 80 to 100% |  | O=C1CCC(N2Cc3c(CN4CCN(c5ccncc5F)CC4)cccc3C2=S)C(=O)N1 (centres unmarked) [GT-08730, 3-(4-((4-(3-fluoropyridin-4-yl)piperazin-1-yl)methyl)-1-thioxoisoindolin-2-yl)piperidine-2,6-dione] | B (80%< substrate protein remaining %≤ 100%) | A (0% ≤ substrate protein remaining % ≤ 80%) | B (80%< substrate protein remaining %≤ 100%) | B (80%< substrate protein remaining %≤ 100%) | B (80%< substrate protein remaining %≤ 100%) | B (80%< substrate protein remaining %≤ 100%) |  |  |  |  |  | 
 |  | 1.5 to 1.9 µM | O=C1CCC(N2Cc3ccc(CN4CCN(C(c5ccccc5)c5ccccn5)CC4)cc3C2=S)C(=O)N1 (centres unmarked) [GT-05041, 3-(6-((4-(phenyl(pyridin-2-yl)methyl)piperazin-1-yl)methyl)-1-thioxoisoindolin-2-yl)piperidine-2,6-dione] | B (80%< substrate protein remaining %≤ 100%) | B (80%< substrate protein remaining %≤ 100%) | B (80%< substrate protein remaining %≤ 100%) | B (80%< substrate protein remaining %≤ 100%) | A (0% ≤ substrate protein remaining % ≤ 80%) | A (0% ≤ substrate protein remaining % ≤ 80%) |  |  |  |  |  | 
60 to 80% | 80 to 100% |  | O=C1CCC(N2Cc3c(CN4CCN(c5cncc(Cl)c5Cl)CC4)cccc3C2=S)C(=O)N1 (centres unmarked) [GT-08724, 3-(4-((4-(4,5-dichloropyridin-3-yl)piperazin-1-yl)methyl)-1-thioxoisoindolin-2-yl)piperidine-2,6-dione] | B (80%< substrate protein remaining %≤ 100%) | A (0% ≤ substrate protein remaining % ≤ 80%) | B (80%< substrate protein remaining %≤ 100%) | B (80%< substrate protein remaining %≤ 100%) | B (80%< substrate protein remaining %≤ 100%) | B (80%< substrate protein remaining %≤ 100%) |  |  |  |  |  | 
60 to 80% | 80 to 100% |  | O=C1CCC(N2Cc3cc(CN4CCN(c5ncccn5)CC4)ccc3C2=S)C(=O)N1 (centres unmarked) [GT-09252, 3-(5-((4-(pyrimidin-2-yl)piperazin-1-yl)methyl)-1-thioxoisoindolin-2-yl)piperidine-2,6-dione] |  |  |  |  |  |  | B (80%< substrate protein remaining %≤ 100%) | B (80%< substrate protein remaining %≤ 100%) | A (0% ≤ substrate protein remaining % ≤ 80%) | B (80%< substrate protein remaining %≤ 100%) | B (80%< substrate protein remaining %≤ 100%) | B (80%< substrate protein remaining %≤ 100%)

Compound | inhibition at 0.5 µM [7] | inhibition at 2 µM [7] | IC50 ([7]; CRBN binding, HTRF, 3 hours at room temperature, read-out: HTRF IC50) | IKZF3 substrate protein remaining % [1, 8] | Wee1 substrate protein remaining % [2, 8] | IKZF2 substrate protein remaining % [3, 8] | CK1α substrate protein remaining % [4, 8] | IKZF 1 substrate protein remaining % [5, 8] | GSPT1 substrate protein remaining % [6, 8] | IKZF3 substrate protein remaining % [1, 9] | Wee1 substrate protein remaining % [2, 9] | IKZF2 substrate protein remaining % [3, 9] | CK1α substrate protein remaining % [4, 9] | IKZF 1 substrate protein remaining % [5, 9] | GSPT1 substrate protein remaining % [6, 9]
O=C1CCC(N2Cc3c(CN4CCC(N(c5ccccc5)c5ccccc5)CC4)cccc3C2=S)C(=O)N1 (centres unmarked) [GT-08209, 3-(4-((4-(diphenylamino)piperidin-1-yl)methyl)-1-thioxoisoindolin-2-yl)piperidine-2,6-dione] | 60 to 80% | 80 to 100% |  | B (80%< substrate protein remaining %≤ 100%) | A (0% ≤ substrate protein remaining % ≤ 80%) | B (80%< substrate protein remaining %≤ 100%) | B (80%< substrate protein remaining %≤ 100%) | B (80%< substrate protein remaining %≤ 100%) | A (0% ≤ substrate protein remaining % ≤ 80%) |  |  |  |  |  | 
